# US6852759B2, “Process for the synthesis of trans-alkenoic acids, use thereof” (priority 2002, dated 2005)
# Like-named read-outs stand apart in the source and are kept apart here. Marks after values point to notes of the source that are not given here.
# Legend:
# [1] = tested on: CCl4 administration in mice
# [2] = tested on: acetaminophen (APAP) in mice; test: Hepatoprotective activity, curative study, acetaminophen (APAP) after diethyl-ether; format: in vivo
# [3] = tested on: CCl4 induced hepatic injury in rats; test: Hepatoprotective activity, curative study, CCl4; format: in vivo
# [4] = 12.5 mg/kg p.o. 1 h before CCl4, mice
# [5] = 25 mg/kg p.o. 1 h before CCl4, mice
# [6] = 50 mg/kg p.o. 1 h before CCl4, mice
# [7] = 100 mg/kg p.o. 1 h before CCl4, mice
# [8] = 12.5 mg/kg p.o. + APAP, curative
# [9] = 100 mg/kg p.o. + APAP, curative
# [10] = TCA alone 100 mg/kg p.o., no APAP, curative study
# [11] = 12.5 mg/kg p.o. + CCl4, curative
# [12] = 100 mg/kg p.o. + CCl4, curative
smiles,measurement,setting,value
"CCCCCCCC/C=C/CCCCCCCCCCCCCC(=O)O [TCA, t-Tetracos-15-enoic acid]",Zoxazolamine Hepatoprotection,[1]; [4],40.10 ± 6.55%
same,Zoxazolamine Paralysis time,[1]; [4],39.00 ± 1.93*^c min
same,Zoxazolamine Hepatoprotection,[1]; [5],51.40 ± 11.12%
same,Zoxazolamine Paralysis time,[1]; [5],35.66 ± 3.28**^c min
same,Zoxazolamine Hepatoprotection,[1]; [6],70.61 ± 7.68%
same,Zoxazolamine Paralysis time,[1]; [6],30.00 ± 2.26**^c min
same,Zoxazolamine Hepatoprotection,[1]; [7],84.17 ± 6.55%
same,Zoxazolamine Paralysis time,[1]; [7],26.00 ± 1.93**^c min
same,Serum ALP,[2]; [8],50.41 ± 3.07^NS μmole of p-nitophenol formed/min/L
same,"Serum ALP, hepatoprotective activity percent",[2]; [8],(21.27 ± 9.50) percent
same,Serum GOT,[2]; [8],1079.43 ± 98.66^NS Units
same,"Serum GOT, hepatoprotective activity percent",[2]; [8],(25.66 ± 7.72) percent
same,Serum GPT,[2]; [8],431.85 ± 25.52 Units
same,"Serum GPT, hepatoprotective activity percent",[2]; [8],(49.67 ± 2.81) percent
same,Serum Triglycerides,[2]; [8],14.72 ± 0.68^NS mg %
same,"Serum Triglycerides, hepatoprotective activity percent",[2]; [8],(28.28 ± 8.27) percent
same,Serum ALP,"[2]; 25 mg/kg p.o. + APAP, curative",46.23 ± 1.73 μmole of p-nitophenol formed/min/L
same,"Serum ALP, hepatoprotective activity percent","[2]; 25 mg/kg p.o. + APAP, curative",(34.15 ± 5.39) percent
same,Serum GOT,"[2]; 25 mg/kg p.o. + APAP, curative",880.10 ± 60.29 Units
same,"Serum GOT, hepatoprotective activity percent","[2]; 25 mg/kg p.o. + APAP, curative",(41.26 ± 4.72) percent
same,Serum GPT,"[2]; 25 mg/kg p.o. + APAP, curative",320.07 ± 41.33 Units
same,"Serum GPT, hepatoprotective activity percent","[2]; 25 mg/kg p.o. + APAP, curative",(67.52 ± 7.71) percent
same,Serum Triglycerides,"[2]; 25 mg/kg p.o. + APAP, curative",13.47 ± 0.89^NS mg %
same,"Serum Triglycerides, hepatoprotective activity percent","[2]; 25 mg/kg p.o. + APAP, curative",(43.32 ± 10.80) percent
same,Serum ALP,"[2]; 50 mg/kg p.o. + APAP, curative",41.44 ± 1.27 μmole of p-nitophenol formed/min/L
same,"Serum ALP, hepatoprotective activity percent","[2]; 50 mg/kg p.o. + APAP, curative",(49.04 ± 3.94) percent
same,Serum GOT,"[2]; 50 mg/kg p.o. + APAP, curative",619.36 ± 88.89 Units
same,"Serum GOT, hepatoprotective activity percent","[2]; 50 mg/kg p.o. + APAP, curative",(61.67 ± 6.96) percent
same,Serum GPT,"[2]; 50 mg/kg p.o. + APAP, curative",282.74 ± 32.96 Units
same,Serum Triglycerides,"[2]; 50 mg/kg p.o. + APAP, curative",12.34 ± 0.85 mg %
same,"Serum Triglycerides, hepatoprotective activity percent","[2]; 50 mg/kg p.o. + APAP, curative",(56.84 ± 10.23) percent
same,Serum ALP,[2]; [9],35.08 ± 2.18 μmole of p-nitophenol formed/min/L
same,"Serum ALP, hepatoprotective activity percent",[2]; [9],(68.82 ± 6.78) percent
same,Serum GOT,[2]; [9],310.53 ± 45.32 Units
same,"Serum GOT, hepatoprotective activity percent",[2]; [9],(85.85 ± 4.25) percent
same,Serum GPT,[2]; [9],235.59 ± 22.77 Units
same,"Serum GPT, hepatoprotective activity percent",[2]; [9],(83.33 ± 1.99) percent
same,Serum Triglycerides,[2]; [9],10.87 ± 0.69 mg %
same,"Serum Triglycerides, hepatoprotective activity percent",[2]; [9],(74.48 ± 8.37) percent
same,Serum ALP,[2]; [10],22.57 ± 2.95 μmole of p-nitophenol formed/min/L
same,Serum GOT,[2]; [10],133.77 ± 20.84 Units
same,Serum GPT,[2]; [10],129.65 ± 24.84 Units
same,Serum Triglycerides,[2]; [10],7.43 ± 0.89 mg %
same,Serum ALP,[3]; [11],51.81 ± 3.94^NS μmole of p-nitrophenol formed/min/L
same,"Serum ALP, hepatoprotective activity percent",[3]; [11],(27.87 ± 9.48) percent
same,Serum Bilirubin,[3]; [11],0.54 ± 0.02 mg %
same,"Serum Bilirubin, hepatoprotective activity percent",[3]; [11],(44.52 ± 3.66) percent
same,Serum GOT,[3]; [11],524.23 ± 34.93 Units
same,"Serum GOT, hepatoprotective activity percent",[3]; [11],(37.12 ± 5.14) percent
same,Serum GPT,[3]; [11],1001.86 ± 48.55 Units
same,"Serum GPT, hepatoprotective activity percent",[3]; [11],(35.59 ± 3.37) percent
same,Serum Triglycerides,[3]; [11],12.57 ± 0.61^NS mg %
same,"Serum Triglycerides, hepatoprotective activity percent",[3]; [11],(24.12 ± 10.07) percent
same,Serum ALP,"[3]; 25 mg/kg p.o. + CCl4, curative",50.92 ± 1.62 μmole of p-nitrophenol formed/min/L
same,"Serum ALP, hepatoprotective activity percent","[3]; 25 mg/kg p.o. + CCl4, curative",(34.03 ± 3.89) percent
same,Serum Bilirubin,"[3]; 25 mg/kg p.o. + CCl4, curative",0.47 ± 0.03 mg %
same,"Serum Bilirubin, hepatoprotective activity percent","[3]; 25 mg/kg p.o. + CCl4, curative",(53.51 ± 4.06) percent
same,Serum GOT,"[3]; 25 mg/kg p.o. + CCl4, curative",448.28 ± 54.88 Units
same,"Serum GOT, hepatoprotective activity percent","[3]; 25 mg/kg p.o. + CCl4, curative",(48.31 ± 8.808) percent
same,Serum GPT,"[3]; 25 mg/kg p.o. + CCl4, curative",772.68 ± 47.66 Units
same,"Serum GPT, hepatoprotective activity percent","[3]; 25 mg/kg p.o. + CCl4, curative",(51.52 ± 3.31) percent
same,Serum Triglycerides,"[3]; 25 mg/kg p.o. + CCl4, curative",11.81 ± 1.05^NS mg %
same,"Serum Triglycerides, hepatoprotective activity percent","[3]; 25 mg/kg p.o. + CCl4, curative",(36.23 ± 18.23) percent
same,Serum ALP,"[3]; 50 mg/kg p.o. + CCl4, curative",43.63 ± 2.82 μmole of p-nitrophenol formed/min/L
same,"Serum ALP, hepatoprotective activity percent","[3]; 50 mg/kg p.o. + CCl4, curative",(51.57 ± 6.78) percent
same,Serum Bilirubin,"[3]; 50 mg/kg p.o. + CCl4, curative",0.39 ± 0.02 mg %
same,"Serum Bilirubin, hepatoprotective activity percent","[3]; 50 mg/kg p.o. + CCl4, curative",(64.25 ± 3.76) percent
same,Serum GOT,"[3]; 50 mg/kg p.o. + CCl4, curative",365.43 ± 29.43 Units
same,"Serum GOT, hepatoprotective activity percent","[3]; 50 mg/kg p.o. + CCl4, curative",(60.50 ± 4.33) percent
same,Serum GPT,"[3]; 50 mg/kg p.o. + CCl4, curative",582.12 ± 37.77 Units
same,"Serum GPT, hepatoprotective activity percent","[3]; 50 mg/kg p.o. + CCl4, curative",(64.76 ± 2.62) percent
same,Serum Triglycerides,"[3]; 50 mg/kg p.o. + CCl4, curative",11.06 ± 0.61 mg %
same,"Serum Triglycerides, hepatoprotective activity percent","[3]; 50 mg/kg p.o. + CCl4, curative",(48.86 ± 10.64) percent
same,Serum ALP,[3]; [12],32.93 ± 2.13 μmole of p-nitrophenol formed/min/L
same,"Serum ALP, hepatoprotective activity percent",[3]; [12],(77.31 ± 5.13) percent
same,Serum Bilirubin,[3]; [12],0.29 ± 0.02 mg %
same,"Serum Bilirubin, hepatoprotective activity percent",[3]; [12],(76.54 ± 3.66) percent
same,Serum GOT,[3]; [12],318.96 ± 16.15 Units
same,"Serum GOT, hepatoprotective activity percent",[3]; [12],(67.35 ± 2.38) percent
